# Paper PMC9396613 (ACS chemical biology, 2022)
# Bridge positions count the residues as written; N and C are the ends. Ends that are not written are not given here.
# Experiments:
# KCa2.3 channels [1] = biological target: T1, KCa2.3 channels (Homo sapiens, UniProt Q9UGI6); assay: Inside-out patch clamp, inhibition of KCa2.3 channels by negative modulator; assay type: cell-based; conditions: read-out: IC50 for inhibition of KCa2.3 channels; 0.5 μM Ca2+; mean ± SD, n = 5
# ET cells [2] = assay: Cilia length measurement in ET cells by immunostaining; assay type: cell-based, mouse
# ET cells [3] = assay: Flow-induced cytosolic Ca2+ measurements (Fura-2AM) in ET cells; assay type: cell-based, mouse; conditions: 20 μM
# KCa2.3 channels [4] = biological target: T1, KCa2.3 channels; assay: Inside-out patch clamp, potentiation of human KCa2.3 channels expressed in HEK293 cells; assay type: cell-based
# rat KCa2.2a channels = conditions: read-out: EC50 on rat KCa2.2a (mean ± SD); cited from earlier work
compound,measurement,setting,value
CC(=O)Nc1cccc2[nH]c(N[C@H](C)c3cccc(C(F)(F)F)c3)nc12 [AP14145],IC50,KCa2.3 channels [1],970 ± 390 nM
same,cilia length,"ET cells [2]; 20 μM for two days, acetylated-α-tubulin staining, mean ± SD",2.8 ± 0.1 μm
same,flow-induced peak Ca2+ values compared with control,ET cells [3],reduced
same,flow-induced cytosolic Ca2+ transients compared with control,ET cells [3]; shear stress 5 dyn/cm2,much weaker Ca^2+ transients
Cc1cc(NC2CCCCC2)nc(-n2nc(C)cc2C)n1 [CyPPA],Emax on KCa2.3 channels (I / Imax (%)),"KCa2.3 channels [4]; current at −90 mV normalized to that obtained at 10 μM Ca2+, mean ± SD",96 ± 10%
same,selectivity for human KCa2.3 channels over rat KCa2.2a channels,"KCa2.3 channels [4]; ratio of EC50 values, Table 1",~ 2.7 fold
same,EC50,"KCa2.3 channels [4]; read-out: EC50 on human KCa2.3 (mean ± SD), inside-out patch, HEK293 cells, 0.15 μM Ca2+, currents at −90 mV, mean ± SD",2700 ± 600 nM
same,EC50,rat KCa2.2a channels,7500 ± 1600 nM
Cc1cc(C)n(-c2nc(Nc3ccc(Cl)cc3)c3ncn(C)c3n2)n1 [NS13001],EC50,rat KCa2.2a channels,2200 ± 500 nM
"apamin (CNCKAPETALCARRCQQH-NH2; disulfide 1-11, 3-15; UniProt P01500 28-45, looked up)",effect on cilia elongation by compound 4,"ET cells [2]; apamin 50 nM with compound 4 20 μM, Arl13b marker",completely abolished the elongating effect
